# Measurements from patent US20050186568A1, “Kinases and phosphatases” (priority 2001, published 2005).
# Experiments:
# [1] = target: CKI-epsilon (Homo sapiens, UniProt P49674); conditions: recombinant expression; cited from earlier work
# [2] = test system: SEQ ID NO:67; test: Microarray analysis of SEQ ID NO:67 expression in steroid-treated C3A cells; format: cell-based, human; conditions: early confluent C3A cells treated for 1, 3, or 6 hours
# Description: (§1) Total RNA is isolated from tissue samples using the guanidinium thiocyanate method and poly(A)^+ RNA is purified using the oligo-(dT) cellulose method. Each poly(A)^+ RNA sample is reverse transcribed using MMLV reverse-transcriptase, 0.05 pg/μl oligo-(dT) primer (21 mer), 1× first strand buffer, 0.03 units/μl RNase inhibitor, 500 μM dATP, 500 μM dGTP, 500 μM dTTP, 40 μM dCTWP, 40 μM dCTP-Cy3 (BDS) or dCTP-Cy5 (Amersham Biosciences). The reverse transcription reaction is performed in a […] containing 200 ng poly(A)^+ RNA with GEMBRIGHT kits (Incyte Genomics). Specific control poly(A)^+ RNAs are synthesized by in vitro transcription from non-coding yeast genomic DNA. After incubation at 37° C. for 2 hr, each reaction sample (one with Cy3 and another with Cy5 labeling) is treated with […] of 0.5M sodium hydroxide and incubated for 20 minutes at 85° C. to the stop the reaction and degrade the RNA. Samples are purified using two successive CHROMA SPIN 30 gel filtration spin columns (Clontech, Palo Alto Calif.) and after combining, both reaction samples are ethanol precipitated using […] of 100% ethanol. The sample is then dried to completion using a SpeedVAC (Savant Instruments Inc., Holbrook N.Y.) and resuspended in 14 μl 5×SSC/0.2% SDS.
# Sequences of the present invention are used to generate array elements. Each array element is amplified from bacterial cells containing vectors with cloned cDNA inserts. PCR amplification uses primers complementary to the vector sequences flanking the cDNA insert. Array elements are amplified in thirty cycles of PCR from an initial quantity of 1-2 ng to a final quantity greater than 5 μg. Amplified array elements are then purified using SEPHACRYL-400 (Amersham Biosciences).
# Purified array elements are immobilized on polymer-coated glass slides. Glass microscope slides (Corning) are cleaned by ultrasound in 0.1% SDS and acetone, with extensive distilled water washes between and after treatments. Glass slides are etched in 4% hydrofluoric acid (VWR Scientific Products Corporation (VWR), West Chester Pa.), washed extensively in distilled water, and coated with 0.05% aminopropyl silane (Sigma) in 95% ethanol. Coated slides are cured in a 110° C. oven.
# Array elements are applied to the coated glass substrate using a procedure described in U.S. Pat. No. 5,807,522, incorporated herein by reference. 1 μl of the array element DNA, at an average concentration of 100 ng/μl, is loaded into the open capillary printing element by a high-speed robotic apparatus. The apparatus then deposits about 5 nl of array element sample per slide.
# Microarrays are UV-crosslinked using a STRATALINKER UV-crosslinker (Stratagene). […]
# [3] = relative to progesterone; cited from earlier work
# [4] = test system: SEQ ID NO:57; test: Microarray analysis of SEQ ID NO:57 expression in steroid-treated C3A cells; format: cell-based, human; conditions: early confluent C3A cells, 1, 3 and 6 hours (all time points), compared to untreated C3A cells
# Description: as §1, with “The sample is then dried to completion using a SpeedVAC (Savant Instruments Inc., Holbrook N.Y.) and resuspended in 14 μl 5×SSC/0.2% SDS.” left out
# Sequences of the present invention are used to generate array elements. […] Array elements are amplified in thirty cycles of PCR from an initial quantity of 1-2 ng to a final quantity greater than 5 μg. […]
# Sequence of CKI-epsilon (P49674 whole entry): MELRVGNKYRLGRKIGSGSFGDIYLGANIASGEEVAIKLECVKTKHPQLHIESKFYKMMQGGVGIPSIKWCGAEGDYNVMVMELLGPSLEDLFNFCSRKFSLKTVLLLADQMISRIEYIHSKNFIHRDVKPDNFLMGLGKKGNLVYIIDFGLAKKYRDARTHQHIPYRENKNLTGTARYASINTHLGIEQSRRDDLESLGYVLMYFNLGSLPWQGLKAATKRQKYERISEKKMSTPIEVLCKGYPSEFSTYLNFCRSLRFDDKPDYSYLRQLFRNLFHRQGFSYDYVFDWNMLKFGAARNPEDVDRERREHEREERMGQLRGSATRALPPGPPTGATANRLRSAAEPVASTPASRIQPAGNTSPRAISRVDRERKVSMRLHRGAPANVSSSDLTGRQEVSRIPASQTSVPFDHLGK
molecule,measurement,setting,value
NCCNS(=O)(=O)c1ccc(Cl)c2ccncc12 [CKI-7],inhibition of CKI-epsilon,[1],inhibited
6α-methyl-17-hydroxyprogesterone [medroxyprogesterone],expression of SEQ ID NO:67,[2],at least a two-fold decrease
same,pharmacological activity greater than progesterone,[3],about 15 times
CC(=O)[C@H]1CC[C@H]2[C@@H]3CCC4=CC(=O)CC[C@]4(C)[C@H]3CC[C@]12C [progesterone],expression of SEQ ID NO:57,[4]; progesterone at 100 μM,increased by at least two-fold
same,expression of SEQ ID NO:67,[2],at least a two-fold decrease
C[C@H]1C[C@H]2[C@@H]3CCC4=CC(=O)C=C[C@]4(C)[C@@]3(Cl)[C@@H](O)C[C@]2(C)[C@@]1(O)C(=O)CO [beclomethasone],expression of SEQ ID NO:57,[4]; beclamethasone at 10 μM,increased by at least two-fold
same,expression of SEQ ID NO:67,[2],at least a two-fold decrease
C[C@]12C=CC(=O)C=C1CC[C@@H]1[C@@H]2C(=O)C[C@@]2(C)[C@H]1CC[C@]2(O)C(=O)CO [prednisone],expression of SEQ ID NO:67,[2],at least a two-fold decrease
